How the values were obtained:
HUVECs = assay: Wound healing assay (hypoxia-induced migration); assay type: cell-based, human; conditions: 0.01, 0.05 and 0.25 μM, 24 h
Method: GA was reported to inhibit tumour angiogenesis and may be a viable drug candidate for anti-angiogenesis and anticancer therapies. Therefore, the anti-angiogenesis activity of the caged xanthone derivative 8n was evaluated. Human umbilical vein endothelial cells (HUVECs) were used in all experiments. Cell migration is critical for endothelial cells to form blood vessels during angiogenesis, tumour growth and metastasis. […] Endothelial cell invasion is a critical part of angiogenesis; therefore, a transwell assay was performed to evaluate the ability of inactivated HUVECs to pass through the transwell membrane barrier in the presence of 8n.
Figure 8 8n had anti-angiogenesis activity in vitro and in vivo. (A) A wound-healing assay was used to evaluate the motility of HUVECs after treatment with 8n for 24 h. (B) Changes in cell motility were evaluated using a transwell assay of cell migration and invasion. (C) The effect of 8n on tube formation by HUVECs. HUVECs were incubated with 8n for 6 h and then transferred to Matrigel for 6 h. (D) Zebrafish embryos treated with blank control or 1, 10, or 50 μg/ml of 8n.
HUVECs were incubated in a 6-well plate until full confluence. […] Then, the wound edges were photographed under an inverted-phase microscope and measured.

[1] = tested on: Caspase-3 and PARP in HepG2 cells; assay: Western blot of apoptosis-related proteins; assay type: cell-based, human; conditions: HepG2, 24 h
Method: Figure 6 (A) Morphological changes in cancer cells and nuclei. (B) 8n induced apoptosis in HepG2 cells. Cultured HepG2 cells were treated with the indicated concentrations of 8n for 48 h. The cells were then were stained with DAPI and observed by fluorescence microscopy. (C) 8n induces apoptosis in a dose-dependent manner. HepG2 cells were treated with different concentrations of 8n for 48 h, and Annexin V and propidium iodide staining were performed. (D) The percentages of early apoptotic and total apoptotic cells were quantified using flow cytometry. *p < 0.05; **p < 0.01. (E) The expression of apoptotic-related proteins in HepG2 cells treated with 8n. HepG2 cells were treated with various concentrations of 8n for 24 h and were then harvested and lysed. The expression levels of Caspase-3, Cleaved Caspase-3, Bax, Bcl-2, PARP and cleaved PARP were measured by Western blotting. TEXT PRINTED IN THE PICTURE: (C) Compound 8n: Dead 1.50 % (Control); Late Apop./Dead 4.95 % (Control); Early Apop. 1.05 % (Control); Dead 1.95 % (0.1 μM); Late Apop./Dead 7.80 % (0.1 μM); Early Apop. 1.60 % (0.1 μM); Dead 7.81 % (0.3 μM); Late Apop./Dead 9.19 % (0.3 μM); Early Apop. […]
The cells were washed with PBS and lysed with ice-cold lysis buffer supplemented with protease inhibitors (Roche) for 30 min. The protein content of the supernatants of lysates was determined using a bicinchoninic acid assay. […]

A549/cisplatin = assay: MTT antiproliferative assay, cisplatin-resistant A549; assay type: cell-based; conditions: read-out: IC50 A549/cisplatin, MTT, 72 h
Method: The inhibition of tumour cell growth was measured by a modified tetrazolium (MTT) salt assay, as previously described[39]. Cells were cultured in a 96-well plate and treated with culture medium alone or different concentrations of the compounds. The cells were incubated for 72 h, and then, the MTT assay reagent was added. After a 4 h incubation, the formazan product was quantitated at 570 nm. The IC50 values (the concentrations that gave rise to 50% inhibition of cell viability) were calculated using GraphPad Prism 6 using a variable slope (four parameters).

[2] = tested on: Hsp90 client proteins in HepG2 cells; assay: Western blot of Hsp90 client proteins; assay type: cell-based, human; conditions: HepG2, 24 h
Method: Figure 9 (A) The caged compounds (50 μM) inhibited the Hsp90 ATPase activity in a HTRF-based inhibition assay. (B) The IC50 values for the inhibition of Hsp90 ATPase by 8n, 8o and GA as detected by the HTRF Transcreener ADP kit. The test compounds were diluted to obtain a range of concentrations and incubated with Hsp90 and ATP. The amount of ADP generated was detected. (C) Western blots of the Hsp90 client proteins after HepG2 cells were treated with the indicated concentrations of 8n for 24 h. (D) The mRNA expression of VEGF was determined by real-time quantitative reverse-transcriptase polymerase chain reaction (RT-PCR) and analysed by the delta Ct method. The bars represent the means with standard error of the mean (SEM) and the fold change in the VEGF/GAPDH ratio relative to the vehicle-treated group. The different significance levels are indicated as **P < 0.05.
The influence of 8n on the degradation of Hsp90 client proteins was monitored by WB analysis. HepG2 cells were treated with different concentrations of 8n for 24 h. […] HIF-1α, as a key modulator of angiogenesis and an important client protein of Hsp90, was also examined, and the expression of HIF-1α decreased after treatment with 8n.
The cells were washed with PBS and lysed with ice-cold lysis buffer supplemented with protease inhibitors (Roche) for 30 min. The protein content of the supernatants of lysates was determined using a bicinchoninic acid assay. Equal 50 μg total protein samples were separated by sodium dodecyl sulphate polyacrylamide gel electrophoresis (SDS−PAGE) and then transferred onto PVDF membranes (Millipore) at 90 volts for 90 mins. After blocking the membrane with 5% skim milk for 1 h at RT, the membranes were incubated with the primary antibody overnight at 4 °C. Then, the membranes were incubated with a DyLight 800-labeled secondary antibody in the dark for 1 h. Detection of specific proteins was performed with the Odyssey infrared imaging system (LI-COR, Lincoln, Nebraska, USA).

SMILES: CC(C)=CCC12OC(C)(C)C3CC(C=C4C(=O)c5c(OC(=O)N6CCC(N7CCCCC7)CC6)cccc5OC431)C2=O (stereo not drawn) [Compound 8n]
- hypoxia-induced migration of HUVECs (HUVECs): suppressed hypoxia-induced migration in a concentration-dependent manner
- levels of cleaved caspase-3/PARP [1]: increased
- IC50 (A549/cisplatin): 1100 ± 170 nM
- expression levels of client proteins HER-2, Akt and Erk1/2 [2]: dramatically reduced
- expression of HIF-1α [2]: decreased
- expression of Hsp70 [2]: changed little

Source: PMC5073322, “Novel Natural Product-like Caged Xanthones Bearing a Carbamate Moiety Exhibit Antitumor Potency and Anti-Angiogenesis Activity In vivo” (Scientific Reports, 2016)
